This passage reports IC50 and CD20 expression level results from patent US20260200903A1, “PHARMACEUTICAL COMPOSITION FOR AMELIORATING MALIGNANT DISEASES” (KINKI UNIVERSITY, priority 2020, published 2026).

What all share (type): cell-based
Assay [1] has as its system KMS-28BM cells (myeloma cell line). Nature of the assay: Cell death inducing effect on KMS-28BM cells, trypan blue staining. Particulars: KMS-28BM (myeloma), cell viability. The procedure: KMS-28BM cells (myeloma cell line) were cultured under 5% CO2 at 37° C. The culture medium used RPMI-1640 medium with 100 μg/mL penicillin, 100 U/mL streptomycin and fetal bovine serum. KMS-28BM cells were seeded into 96-well plates and incubated with each concentration of the compounds was added, and cell viability was determined by the trypan blue staining.
(§1) For controls, only 0.5% DMSO (diluted in PBS) used to dissolve the compounds was added. For each concentration, each bar line is indicated by an arrow with the sign “n, a, 1, 2, 3, 4, 5, 6, 7, 8, 9, 10, 11, 12” from left to right. The “1, 3, 5, 7, 9, 11” are omitted from the graph, but the sign “1” shall be indicated by an arrow between the signs “a” and “2”, the sign “3” between the signs “2” and “4”, and other odd numbers shall likewise be indicated by arrows between even numbers before and after.
(§2) The sign “n” is the norathyriol (formula (n)) administration group, the sign “a” is the mangiferin 8a (formula (a)) administration group, the sign “1” is the yk-7 (formula (1)) administration group, the sign “2” is the yk-8-1 (formula (2)) administration group, the sign “3” is the yk-8-3 (formula (3)) administration group, the sign “4” is the M7 (formula (4)) administration group, the sign “5” is the M9 (formula (5)) administration group, the sign “6” is the M11 (formula (6)) administration group, the sign “7” is the M12 (formula (7)) administration group, the sign “8” is the M14 (formula (8)) administration group, the sign “9” is the M15 (formula (9)) administration group, the sign “10” is the M16 (formula (10)) administration group, the sign “11” is the M18 (formula (11)) administration group, the sign “12” is the M19 (formula (12)) administration group, respectively. The IC50 values for each compound is also listed in the upper right corner of the figure.

Assay [2] has as its system L363 cells (myeloma cell line). The assay is described as follows: Cell death inducing effect on L363 cells, trypan blue staining. The procedure: L363 cells (myeloma cell line) were cultured under 5% CO2 at 37° C. The culture medium used RPMI-1640 medium with 100 μg/mL penicillin, 100 U/mL streptomycin and fetal bovine serum. L363 cells were seeded into 96-well plates and incubated with each concentration of the compounds was added, and cell viability was determined by the trypan blue staining.
as §1, §2

The subject of assay [3] is RPMI8226 cells (myeloma cell line). Nature of the assay: Cell death inducing effect on RPMI8226 cells, trypan blue staining. The procedure:
RPMI8226 cells (myeloma cell line) were cultured under 5% CO2 at 37° C. The culture medium used RPMI-1640 medium with 100 μg/mL penicillin, 100 U/mL streptomycin and fetal bovine serum. RPMI8226 cells were seeded into 96-well plates and incubated with each concentration of the compounds was added, and cell viability was determined by the trypan blue staining.
as §1, §2

Assay [4] deals with RPMI8226/B cells (bortezomib-resistant myeloma cell line). Nature of the assay: Cell death inducing effect on RPMI8226/B cells, trypan blue staining. Particulars: RPMI8226/B (myeloma; bortezomib resistance), cell viability. The procedure:
RPMI8226/B cells (bortezomib-resistant myeloma cell line) were cultured under 5% CO2 at 37° C. The culture medium used RPMI-1640 medium with 100 μg/mL penicillin, 100 U/mL streptomycin and fetal bovine serum. RPMI8226/B cells were seeded into 96-well plates and incubated with each concentration of the compounds was added, and cell viability was determined by the trypan blue staining.
as §1, §2

Assay [5] has as its system Raji cells (burkitt lymphoma cell line). Nature of the assay: Cell death inducing effect on Raji cells, trypan blue staining. Particulars: Raji (Burkkit lymphoma), cell viability. The procedure: Raji cells (burkitt lymphoma cell line) were cultured under 5% CO2 at 37° C. The culture medium used RPMI-1640 medium with 100 μg/mL penicillin, 100 U/mL streptomycin and fetal bovine serum. Raji cells were seeded into 96-well plates and incubated with each concentration of the compounds was added, and cell viability was determined by the trypan blue staining.
as §1, §2

For assay [6], the system named is RPMI1788 cells (human normal B cell line). The assay is described as follows: Cell death inducing effect on RPMI1788 normal B cells, trypan blue staining. The conditions noted are these: RPMI1788 (normal B lymphocyte), cell viability. The method, then:
RPMI1788 cells (human normal B cell line) were cultured under 5% CO2 at 37° C. The culture medium used RPMI-1640 medium with 100 μg/mL penicillin, 100 U/mL streptomycin and fetal bovine serum. RPMI1788 cells were seeded into 96-well plates and incubated with each concentration of the compounds was added, and cell viability was determined by the trypan blue staining.
as §1, §2

Assay [7] has as its system CD20. Nature of the assay: CD20 expression in KMS-28BM cells, flow cytometry. The conditions noted are these: 10 days, concentration lower than the IC50 (0.005-50 μM), compared to the positive control. The method, then:
As a control, compounds untreated KMS-28BM cells were seeded in 75 cm^2 flasks and incubated for 10 days at 37° C. and 5% CO2. KMS-28BM cells were seeded into 75 cm^2 flasks and pre-cultured for 4 h. After incubation, KMS-28BM cells were treated with […], 0.05 μM M9, 0.1 μM yk-7, 0.1 μM yk-8-3, 50 μM yk-8-1, 0.5 μM M11, […], 0.005 μM M14, 0.005 μM M15, 0.005 μM M16, 0.5 μM M18, and 0.5 μM M19 at final concentrations, and incubated for 10 days at 37° C. and 5% CO2. This added amount is a concentration lower than the IC50 of the above compounds for KMS-28BM cells. After 10 days of incubation, cells were stained with anti-CD20 antibody, a B cell marker, and CD20 expression was measured using BD LSRFortessa. CCRF-SB cells were used as CD20-positive controls.
Results are shown in FIG. 21, FIG. 22, FIG. 23, and FIG. 24. The horizontal axis represents the expression level of CD20 and the vertical axis represents the number of cells.

Assay [8] deals with CD20. The assay is described as follows: CD20 expression in L363 cells, flow cytometry. Particulars: 10 days, concentration lower than the IC50 (0.005-50 μM), compared to the positive control. The procedure:
As a control, compounds untreated L363 cells were seeded in 75 cm^2 flasks and incubated for 10 days at 37° C. and 5% CO2. L363 cells were seeded into 75 cm^2 flasks and pre-cultured for 4 h. After incubation, L363 cells were treated with 0.1 μM M7, 0.05 μM M9, 0.1 μM yk-7, 0.1 μM yk-8-3, 50 μM yk-8-1, 0.1 μM M11, 0.01 μM M12, 0.005 μM M14, 0.005 μM M15, 0.005 μM M16, 1 μM M18, and 1 μM M19 at final concentrations, and incubated for 10 days at 37° C. and 5% CO2. This added amount is a concentration lower than the IC50 of the above compounds for L363 cells. After 10 days of incubation, cells were stained with anti-CD20 antibody, a B cell marker, and CD20 expression was measured using BD LSRFortessa. CCRF-SB cells were used as CD20-positive controls.
Results are shown in FIG. 29, FIG. 30, FIG. 31, and FIG. 32. The horizontal axis represents the expression level of CD20 and the vertical axis represents the number of cells.

[9] abbreviates: Homo sapiens, L-363, cell viability.
Where [10] appears, read: Homo sapiens, RPMI-8226, cell viability.

Consider `O=c1c2cc(O)c(O)cc2oc2cc(O)cc(OCCO)c12` [Compound M18, 3,6,7-trihydroxy-1-(2-hydroxyethoxy)-9H-xanthen-9-one], for which the IC50 in assay [1] is 890 nM; in assay [2] (setting [9]), 4.7 µM; in assay [3] (setting [10]), 6.87 µM; in assay [4] (Homo sapiens, RPMI-8226) it was 486 nM; in assay [5] (Homo sapiens), 5.59 µM; in assay [6] (Homo sapiens, RPMI-1788) it was over 100000 nM. The CD20 expression level result in the assay with CD20 [7] and in the assay on CD20 [8] was “significantly increased” in each case.
As for `C=CCOc1cc(O)cc2oc3cc(O)c(O)cc3c(=O)c12` [Compound M19, 1-allyloxy-3,6,7-trihydroxy-9H-xanthen-9-one], the IC50 is 2100 nM in assay [1]; 7.2 µM in assay [2] (setting [9]); 9.54 µM in assay [3] (setting [10]); 758 nM in assay [4] (Homo sapiens, RPMI-8226); 8.92 µM in assay [5] (Homo sapiens); over 100000 nM in assay [6] (Homo sapiens, RPMI-1788). In addition, the CD20 expression level entry in the assay with CD20 [7] and with CD20 [8] was “significantly increased” in each case.
Consider `CCCCC(=O)OC[C@H]1O[C@@H](c2c(O)cc3oc4cc(O)c(O)cc4c(=O)c3c2O)[C@H](OC(=O)CCCC)[C@@H](OC(=O)CCCC)[C@@H]1OC(=O)CCCC` [yk-7, 2′,3′,4′,6′-tetra-O-valerylmangiferin], for which the IC50 in assay [1] turned out to be 5300 nM; in assay [2] (setting [9]) it was 5.7 µM; in assay [3] (setting [10]) it was 2.46 µM; in assay [4] (Homo sapiens, RPMI-8226), 79 nM; in assay [5] (Homo sapiens) it was 0.383 µM; in assay [6] (Homo sapiens, RPMI-1788), 2760 nM. Also, the CD20 expression level entry in the assay with CD20 [7] and in the assay on CD20 [8] was “significantly increased” each time.
As to `CCCCC(=O)OC[C@H]1O[C@@H](c2c(OC(=O)CCCC)cc3oc4cc(OC(=O)CCCC)c(OC(=O)CCCC)cc4c(=O)c3c2OC(=O)CCCC)[C@H](OC(=O)CCCC)[C@@H](OC(=O)CCCC)[C@@H]1OC(=O)CCCC` [yk-8-1, 1,3,2′,3′,4′,6,6′,7-octa-O-valerylmangiferin], the IC50 is over 100000 nM in assay [1]; over 100 µM in assay [2] (cell viability); over 100 µM in assay [3] (cell viability); 6430 nM in assay [4]; over 100 µM in assay [5]; over 100000 nM in assay [6]. Further, the CD20 expression level result in the assay on CD20 [7] and with CD20 [8] was “significantly increased” throughout.
`CCCCC(=O)OC[C@H]1O[C@@H](c2c(O)cc3oc4cc(O)c(O)cc4c(=O)c3c2OC(=O)CCCC)[C@H](OC(=O)CCCC)[C@@H](OC(=O)CCCC)[C@@H]1OC(=O)CCCC` [yk-8-3, 1,2′,3′,4′,6-penta-O-valerylmangiferin]: the IC50 in assay [1] is 570 nM; in assay [2] (setting [9]), 1.4 µM; in assay [3] (setting [10]), 2.27 µM; in assay [4] (Homo sapiens, RPMI-8226), 231 nM; in assay [5] (Homo sapiens), 0.865 µM; in assay [6] (Homo sapiens, RPMI-1788) it was 416 nM. The CD20 expression level entry in the assay with CD20 [7] and with CD20 [8] was “significantly increased” in each case.
